# Legend:
# Type in all cases: in vivo
# Pharbitis purpurea = assay: Post-emergence herbicidal action against PHBPU (greenhouse pot test)
# Text: (§1) Die folgenden Abkürzungen werden für die in den folgenden Tabellen aufgeführten Kultur- und Schadpflanzen verwendet: ABUTH: Abutilon theophrasti ALOMY: Alopecurus myosuroides AMARE: Amaranthus retroflexus BRSNS: Brassica napus DIGSA: Digitaria sanguinalis ECHCG: Echinochloa crus-galli GLXMA: Glycine max KCHSC: Kochia scoparia LOLRI: Lolium rigidum MATIN: Matricaria inodora ORYZA: Oryza sativa PHPBU: Pharbitis purpurea POLCO: Polygonum convolvulus SETVI: Setaria viridis VERPE: Veronica persica VIOTR: Viola tricolor TRZAS: Triticum aestivum ZEAMX: Zea mays
# (§2) Samen von mono- bzw. dikotylen Unkrautpflanzen wurden in Kunststoff- oder Holzfasertöpfen in sandigem Lehmboden ausgelegt, mit Erde abgedeckt und im Gewächshaus unter kontrollierten Wachstumsbedingungen angezogen. 2 bis 3 Wochen nach der Aussaat wurden die Versuchspflanzen im Einblattstadium behandelt. Die in Form von benetzbaren Pulvern (WP) oder als Emulsionskonzentrate (EC) formulierten erfindungsgemäßen Verbindungen wurden dann als wässrige Suspension bzw. Emulsion unter Zusatz von 0,5% Additiv mit einer Wasseraufwandmenge von umgerechnet 600 1/ha auf die grünen Pflanzenteile gesprüht. Nach ca. 3 Wochen Standzeit der Versuchspflanzen im Gewächshaus, unter optimalen Wachstumsbedingungen, wurde die Wirkung der Präparate visuell im Vergleich zu unbehandelten Kontrollen bonitiert. Beispielsweise bedeutet 100% Wirkung = Pflanzen sind abgestorben, 0% Wirkung = wie Kontrollpflanzen.
# (§3) In den nachstehenden Tabellen A1 bis A11 sind die Wirkungen ausgewählter Verbindungen der allgemeinen Formel (I) gemäß der Tabelle 1 auf verschiedene Schadpflanzen und einer Aufwandmenge entsprechend 80 g/ha und niedriger, die gemäß zuvor genannter Versuchsvorschrift erhalten wurden, dargestellt. Tabelle A1a: Nachauflaufwirkung bei 5 g/ha gegen ABUTH in %
# Polygonum convolvulus = assay: Post-emergence herbicidal action against POLCO (greenhouse pot test)
# Text: as §1, §2, §3
# Veronica persica = assay: Post-emergence herbicidal action against VERPE (greenhouse pot test)
# Text: as §1, §2, §3
# Alopecurus myosuroides = assay: Post-emergence herbicidal action against ALOMY (greenhouse pot test); settings: visual rating after ca. 3 weeks vs untreated controls (100% = plants dead, 0% = like controls)
# Text: as §1, §2, §3
# Matricaria inodora = assay: Post-emergence herbicidal action against MATIN (greenhouse pot test); settings: for Nachauflaufwirkung gegen MATIN: visual rating after ca. 3 weeks vs untreated controls (100% = plants dead, 0% = like controls)
# Text: as §1, §2, §3
# Lolium rigidum = assay: Post-emergence herbicidal action against LOLRI (greenhouse pot test); settings: 80 g/ha, visual rating after ca. 3 weeks vs untreated controls (100% = plants dead, 0% = like controls)
# Text: as §1, §2, §3
# Viola tricolor = assay: Post-emergence herbicidal action against VIOTR (greenhouse pot test)
# Text: as §1, §2, §3
# Triticum aestivum = assay: Post-emergence action on crop plants, TRZAS (greenhouse pot test); settings: crop plant
# Text: as §1
# as §2, with “Kulturpflanzen” for “Unkrautpflanzen”
# as §3, with “B1” for “A1”, “B3” for “A11”, “Kulturpflanzen” for “Schadpflanzen”, “20” for “80”, “B1a:” for “A1a:”, “ZEAMX” for “ABUTH”
# Amaranthus retroflexus = assay: Post-emergence herbicidal action against AMARE (greenhouse pot test); settings: visual rating after ca. 3 weeks vs untreated controls (100% = plants dead, 0% = like controls)
# Text: as §1, §2, §3
# Setaria viridis = assay: Post-emergence herbicidal action against SETVI (greenhouse pot test)
# Text: as §1, §2, §3
# Abutilon theophrasti = assay: Post-emergence herbicidal action against ABUTH (greenhouse pot test); settings: visual rating after ca. 3 weeks vs untreated controls (100% = plants dead, 0% = like controls)
# Text: as §1, §2, §3
# Oryza sativa = assay: Post-emergence action on crop plants, ORYZA (greenhouse pot test); settings: 5 g/ha
# Text: as §1
# as §2, with “Kulturpflanzen” for “Unkrautpflanzen”
# as §3, with “B1” for “A1”, “B3” for “A11”, “Kulturpflanzen” for “Schadpflanzen”, “20” for “80”, “B1a:” for “A1a:”, “ZEAMX” for “ABUTH”
# Digitaria sanguinalis = assay: Post-emergence herbicidal action against DIGSA (greenhouse pot test); settings: visual rating after ca. 3 weeks vs untreated controls (100% = plants dead, 0% = like controls)
# Text: as §1, §2, §3
# Zea mays = assay: Post-emergence action on crop plants, ZEAMX (greenhouse pot test); settings: 5 g/ha, crop plant
# Text: as §1
# as §2, with “Kulturpflanzen” for “Unkrautpflanzen”
# as §3, with “B1” for “A1”, “B3” for “A11”, “Kulturpflanzen” for “Schadpflanzen”, “20” for “80”, “B1a:” for “A1a:”, “ZEAMX” for “ABUTH”
smiles,measurement,setting,value
CCOCCOC(=O)C(C)(C)OC(=O)c1cc(-n2c(=O)cc(C(F)(F)F)n(C)c2=O)c(F)cc1Cl [I.1-2],Nachauflaufwirkung gegen PHBPU in %,Pharbitis purpurea; 5 g/ha,100%
same,Nachauflaufwirkung gegen PHBPU in %,Pharbitis purpurea; 20 g/ha,100%
same,Nachauflaufwirkung gegen PHBPU in %,Pharbitis purpurea; 80 g/ha,100%
same,Nachauflaufwirkung gegen POLCO in %,Polygonum convolvulus; 5 g/ha,100%
same,Nachauflaufwirkung gegen POLCO in %,Polygonum convolvulus; 20 g/ha,100%
same,Nachauflaufwirkung gegen POLCO in %,Polygonum convolvulus; 80 g/ha,100%
same,Nachauflaufwirkung gegen VERPE in %,Veronica persica; 5 g/ha,100%
same,Nachauflaufwirkung gegen VERPE in %,Veronica persica; 20 g/ha,100%
same,Nachauflaufwirkung gegen VERPE in %,Veronica persica; 80 g/ha,100%
same,Nachauflaufwirkung gegen ALOMY,Alopecurus myosuroides; 20 g/ha,90%
same,Nachauflaufwirkung gegen ALOMY,Alopecurus myosuroides; 80 g/ha,100%
same,Nachauflaufwirkung gegen MATIN,Matricaria inodora; 5 g/ha,100%
same,Nachauflaufwirkung gegen MATIN,Matricaria inodora; 20 g/ha,100%
same,Nachauflaufwirkung gegen MATIN in %,Matricaria inodora; 80 g/ha,100%
same,Nachauflaufwirkung gegen LOLRI,Lolium rigidum,100%
same,Nachauflaufwirkung gegen VIOTR in %,Viola tricolor; 5 g/ha,100%
same,Nachauflaufwirkung gegen VIOTR in %,Viola tricolor; 20 g/ha,100%
same,Nachauflaufwirkung gegen VIOTR in %,Viola tricolor; 80 g/ha,100%
same,Nachauflaufwirkung gegen TRZAS in %,Triticum aestivum; 5 g/ha,10%
same,Nachauflaufwirkung gegen TRZAS in %,Triticum aestivum; 20 g/ha,20%
same,Nachauflaufwirkung gegen AMARE,Amaranthus retroflexus; 5 g/ha,100%
same,Nachauflaufwirkung gegen AMARE,Amaranthus retroflexus; 20 g/ha,100%
same,Nachauflaufwirkung gegen AMARE,Amaranthus retroflexus; 80 g/ha,100%
same,Nachauflaufwirkung gegen SETVI in %,Setaria viridis; 5 g/ha,100%
same,Nachauflaufwirkung gegen SETVI in %,Setaria viridis; 20 g/ha,100%
same,Nachauflaufwirkung gegen SETVI in %,Setaria viridis; 80 g/ha,100%
same,Nachauflaufwirkung gegen ABUTH,Abutilon theophrasti; 5 g/ha,100%
same,Nachauflaufwirkung gegen ABUTH,Abutilon theophrasti; 20 g/ha,100%
same,Nachauflaufwirkung gegen ABUTH,Abutilon theophrasti; 80 g/ha,100%
same,Nachauflaufwirkung gegen ORYZA in %,Oryza sativa,0%
same,Nachauflaufwirkung gegen DIGSA,Digitaria sanguinalis; 5 g/ha,100%
same,Nachauflaufwirkung gegen DIGSA,Digitaria sanguinalis; 20 g/ha,100%
same,Nachauflaufwirkung gegen DIGSA,Digitaria sanguinalis; 80 g/ha,100%
same,Nachauflaufwirkung gegen ZEAMX in %,Zea mays,20%

# Reference: patent publication EP4230621A1, “SUBSTITUTED N-BENZOIC ACID URACILS, THEIR SALTS AND USE OF SAID COMPOUNDS AS HERBICIDAL AGENTS” (Bayer AG, priority 2022, dated 2023)
